Measurements reported in article PMC6437697 (Journal of Medicinal Chemistry, 2019).

Legend:
Assay in all cases: KINOMEscan
Format in all cases: binding
Settings in all cases: read-out: % control activity remaining
CDK2 = target: T1, CDK2 (Homo sapiens, UniProt P24941)
T1 construct: purchased Eurofins DiscoverX KINOMEscan

EPHA8 = target: T2, EPHA8 (Homo sapiens, UniProt P29322)
T2 construct: purchased Eurofins DiscoverX KINOMEscan
T2 sequence (P29322 28-1005): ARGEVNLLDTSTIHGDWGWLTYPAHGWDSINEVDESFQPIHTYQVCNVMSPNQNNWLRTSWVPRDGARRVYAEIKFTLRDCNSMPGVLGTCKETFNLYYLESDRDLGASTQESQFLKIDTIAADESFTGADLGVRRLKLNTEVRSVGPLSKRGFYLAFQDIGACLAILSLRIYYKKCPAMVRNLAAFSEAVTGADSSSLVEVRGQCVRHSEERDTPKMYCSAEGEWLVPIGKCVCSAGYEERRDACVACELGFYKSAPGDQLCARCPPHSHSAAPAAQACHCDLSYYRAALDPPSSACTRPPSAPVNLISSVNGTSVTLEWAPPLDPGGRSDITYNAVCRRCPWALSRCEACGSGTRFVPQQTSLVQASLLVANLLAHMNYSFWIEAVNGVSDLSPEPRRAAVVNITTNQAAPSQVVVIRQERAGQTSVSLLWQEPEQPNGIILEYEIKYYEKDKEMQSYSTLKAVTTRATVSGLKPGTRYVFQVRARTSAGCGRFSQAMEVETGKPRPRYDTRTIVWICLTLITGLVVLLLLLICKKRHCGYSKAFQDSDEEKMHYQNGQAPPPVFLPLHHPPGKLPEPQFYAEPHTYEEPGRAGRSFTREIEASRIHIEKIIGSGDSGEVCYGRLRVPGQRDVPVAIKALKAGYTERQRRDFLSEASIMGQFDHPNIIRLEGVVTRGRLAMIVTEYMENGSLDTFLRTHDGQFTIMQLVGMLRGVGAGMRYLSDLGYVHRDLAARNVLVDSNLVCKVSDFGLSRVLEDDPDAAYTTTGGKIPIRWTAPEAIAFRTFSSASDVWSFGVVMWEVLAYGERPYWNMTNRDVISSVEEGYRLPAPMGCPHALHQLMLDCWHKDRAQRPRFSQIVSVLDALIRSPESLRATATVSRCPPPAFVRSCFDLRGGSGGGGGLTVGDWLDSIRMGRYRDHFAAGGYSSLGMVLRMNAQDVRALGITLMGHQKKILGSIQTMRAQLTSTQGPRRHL

RIOK3 = target: T3, RIOK3 (Homo sapiens, UniProt O14730)
T3 construct: purchased Eurofins DiscoverX KINOMEscan
T3 sequence (O14730 1-519): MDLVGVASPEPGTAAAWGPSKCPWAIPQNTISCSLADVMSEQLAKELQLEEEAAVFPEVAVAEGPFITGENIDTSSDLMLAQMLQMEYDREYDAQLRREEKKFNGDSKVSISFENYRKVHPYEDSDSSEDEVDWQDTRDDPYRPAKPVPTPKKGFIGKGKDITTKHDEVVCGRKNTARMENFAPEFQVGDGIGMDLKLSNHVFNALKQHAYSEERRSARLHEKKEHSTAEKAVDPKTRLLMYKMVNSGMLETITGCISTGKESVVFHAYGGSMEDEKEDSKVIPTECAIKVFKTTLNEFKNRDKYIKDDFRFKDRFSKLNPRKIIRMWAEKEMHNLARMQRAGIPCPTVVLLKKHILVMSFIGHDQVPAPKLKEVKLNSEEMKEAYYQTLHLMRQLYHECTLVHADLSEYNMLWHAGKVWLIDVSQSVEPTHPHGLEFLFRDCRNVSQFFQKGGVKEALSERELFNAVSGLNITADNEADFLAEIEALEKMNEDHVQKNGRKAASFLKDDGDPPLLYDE

TRKB = target: T4, TRKB (Homo sapiens, UniProt Q16620)
T4 construct: purchased Eurofins DiscoverX KINOMEscan

ASK2 = target: T5, ASK2 (Homo sapiens, UniProt O95382)
T5 construct: purchased Eurofins DiscoverX KINOMEscan
T5 sequence (O95382 1-1288): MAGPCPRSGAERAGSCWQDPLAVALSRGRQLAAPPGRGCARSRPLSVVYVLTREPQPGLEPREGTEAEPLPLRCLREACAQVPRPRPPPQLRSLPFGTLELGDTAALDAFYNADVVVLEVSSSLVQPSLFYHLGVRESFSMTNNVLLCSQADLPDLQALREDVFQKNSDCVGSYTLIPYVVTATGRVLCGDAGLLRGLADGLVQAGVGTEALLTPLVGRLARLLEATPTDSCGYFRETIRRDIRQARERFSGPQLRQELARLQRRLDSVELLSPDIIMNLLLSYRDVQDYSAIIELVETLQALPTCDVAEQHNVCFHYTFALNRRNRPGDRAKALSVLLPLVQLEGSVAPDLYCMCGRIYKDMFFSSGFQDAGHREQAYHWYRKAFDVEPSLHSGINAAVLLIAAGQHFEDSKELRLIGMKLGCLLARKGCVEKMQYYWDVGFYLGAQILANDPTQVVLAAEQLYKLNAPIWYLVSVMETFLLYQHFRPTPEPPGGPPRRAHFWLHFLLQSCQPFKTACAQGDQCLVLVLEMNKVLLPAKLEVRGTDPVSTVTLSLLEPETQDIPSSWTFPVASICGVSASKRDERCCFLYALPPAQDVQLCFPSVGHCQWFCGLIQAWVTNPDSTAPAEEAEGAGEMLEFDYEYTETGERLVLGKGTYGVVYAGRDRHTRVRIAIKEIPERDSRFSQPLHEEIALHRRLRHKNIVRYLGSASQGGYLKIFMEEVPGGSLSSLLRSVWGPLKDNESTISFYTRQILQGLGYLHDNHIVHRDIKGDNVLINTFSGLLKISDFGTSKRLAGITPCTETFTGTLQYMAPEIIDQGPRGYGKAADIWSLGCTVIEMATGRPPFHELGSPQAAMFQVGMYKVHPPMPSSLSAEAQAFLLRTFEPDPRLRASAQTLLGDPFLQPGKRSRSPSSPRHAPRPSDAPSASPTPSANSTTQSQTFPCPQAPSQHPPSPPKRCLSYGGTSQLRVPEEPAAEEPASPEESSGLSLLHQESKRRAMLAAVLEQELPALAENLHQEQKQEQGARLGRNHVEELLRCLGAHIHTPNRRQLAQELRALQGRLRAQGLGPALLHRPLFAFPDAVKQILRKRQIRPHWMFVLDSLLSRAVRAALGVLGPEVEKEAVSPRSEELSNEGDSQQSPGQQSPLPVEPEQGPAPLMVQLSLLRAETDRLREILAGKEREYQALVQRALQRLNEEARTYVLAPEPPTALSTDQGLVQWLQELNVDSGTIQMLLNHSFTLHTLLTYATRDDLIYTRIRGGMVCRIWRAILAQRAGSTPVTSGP

T4 sequence (Q16620 32-822): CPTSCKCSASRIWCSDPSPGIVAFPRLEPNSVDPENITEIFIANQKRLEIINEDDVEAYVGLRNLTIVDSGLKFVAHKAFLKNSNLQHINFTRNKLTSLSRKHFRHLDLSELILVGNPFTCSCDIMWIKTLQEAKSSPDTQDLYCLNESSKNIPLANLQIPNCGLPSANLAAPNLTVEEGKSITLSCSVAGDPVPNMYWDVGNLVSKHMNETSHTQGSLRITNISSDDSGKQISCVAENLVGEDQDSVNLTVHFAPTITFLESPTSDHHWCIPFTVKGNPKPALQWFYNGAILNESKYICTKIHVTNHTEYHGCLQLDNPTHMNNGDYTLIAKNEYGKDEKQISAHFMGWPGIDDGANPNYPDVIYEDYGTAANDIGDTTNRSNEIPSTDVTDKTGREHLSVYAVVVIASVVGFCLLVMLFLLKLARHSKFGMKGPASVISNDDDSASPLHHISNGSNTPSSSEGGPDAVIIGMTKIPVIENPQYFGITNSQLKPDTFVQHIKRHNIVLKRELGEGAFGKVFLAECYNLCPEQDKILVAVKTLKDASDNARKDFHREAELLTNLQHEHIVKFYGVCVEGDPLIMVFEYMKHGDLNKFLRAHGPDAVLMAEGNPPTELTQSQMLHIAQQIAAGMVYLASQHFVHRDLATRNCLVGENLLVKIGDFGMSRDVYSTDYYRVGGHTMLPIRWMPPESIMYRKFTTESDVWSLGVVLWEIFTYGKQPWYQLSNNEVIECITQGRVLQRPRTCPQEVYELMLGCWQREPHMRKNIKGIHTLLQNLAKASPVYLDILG

Compound | remaining binding at 1 µM (CDK2) [%] | remaining binding at 1 µM (EPHA8) [%] | remaining binding at 1 µM (RIOK3) [%] | remaining binding at 1 µM (TRKB) [%] | remaining binding at 1 µM (ASK2) [%]
Clc1cc(NCC2CC2)c2ncc(-c3ccc4[nH]ncc4c3)n2n1 [compound 2, 6-Chloro-N-(cyclopropylmethyl)-3-(1H-indazol-5-yl)imidazo[1,2-b]pyridazin-8-amine] | 88 | 90 | 31 | 89 | 83
O=C(CN1CCOCC1)N[C@H]1CC[C@H](Nc2cc(Cl)nn3c(-c4ccc5[nH]ncc5c4)cnc23)CC1 [compound 26] | 95 | 90 | 32 | 69 | 96
CN1CCC(CNc2cc(Cl)nn3c(-c4cc5nc(Nc6ccccc6)[nH]c5cc4F)cnc23)CC1 [compound 31, 6-Chloro-3-(6-fluoro-2-(phenylamino)-1H-benzo[d]imidazol-5-yl)-N-((1-methylpiperidin-4-yl)methyl)imidazo[1,2-b]pyridazin-8-amine] | 98 | 92 | 94 | 91 | 100
